Measured values: patent US20250319019A1, “BUCCOMUCOADHESIVE PATCH-BASED DRUG DELIVERY SYSTEM FOR TACROLIMUS” (priority 2022, published 2025)

Columns and labels:
[1] = poor and variable, intestinal absorption; background statement; cited from earlier work
[2] = In-vivo pharmacokinetic evaluation, single dose; design: species or system New Zealand White rabbits; settings: New Zealand White, whole blood
Experimental: The study was performed in New Zealand White rabbits as per the CPCSEA guidance. Overnight fasted animals were anaesthetised with Ketamine (30-40 mg/kg) and Xylazine (10 mg/kg) and 1 mg BAPTac patch was administered on the buccal surface of the oral cavity. The control group was administered 1 mg tacrolimus in PBS and 30% Ethanol. 0.5-0.75 ml of blood was taken from each rabbit via the marginal ear vein using 23 gauge needles through a butterfly cannula. The blood samples were collected before initiation of the treatment and after the administration of oral Tacrolimus or Tacrolimus-SLN-loaded buccal patch at time intervals of 15 min, 30 min, 1 h, 1.5 h, 2 h, 4 h, 6 h, 8 h, 12 h and 24 hours for the single dose PK study. Blood samples were collected in EDTA tubes, aliquoted and stored in amber-coloured tubes at −80° C. until quantification by LC-MS/MS.

SMILES: C=CC[C@@H]1/C=C(\C)C[C@H](C)C[C@H](OC)[C@H]2O[C@@](O)(C(=O)C(=O)N3CCCC[C@H]3C(=O)O[C@H](/C(C)=C/[C@@H]3CC[C@@H](O)[C@H](OC)C3)[C@H](C)[C@@H](O)CC1=O)[C@H](C)C[C@@H]2OC (relative stereo) [Tacrolimus, [3S[3R*[E(1S*,3S*,4S*)],4S*,5R*,8S*,9E,12R*,14R*,15S*,16R*,18S*,19S*, 26aR*]]5,6,8,11,12,13,14,15,16,17,18,19,24,25,26,26a-hexadecahydro-5,19-dihydroxy-3-[2-(4-hydroxy-3-methoxycyclohexyl)-1-methylethenyl]-14,16-dimethoxy-4,10,12,18-tetramethyl-8-(2-propenyl)-15,19-epoxy-3H-pyrido[2,1-c][1,4]oxaazacyclotricosine-1,7,20,21(4H,23H)-tetrone, monohydrate]
- bioavailability (average) [1]: 25%
- concentration at 0.25 h ([2]; 1 mg, heading: Average Tac conc., rabbit blood, 0.25 (15 mins) after single 1 mg dose (oral or buccal patch), LC-MS/MS): 3.6 ng/mL
- concentration at 0.5 h ([2]; 1 mg, heading: Average Tac conc., rabbit blood, 0.5 (30 mins) after single 1 mg dose (oral or buccal patch)): 12.3 ng/mL
- concentration at 1 h ([2]; 1 mg, heading: Average Tac conc., rabbit blood, 1.0 (60 mins) after single 1 mg dose (oral or buccal patch)): 17.2 ng/mL
- concentration at 1.5 h ([2]; 1 mg, heading: Average Tac conc., rabbit blood, 1.5 (90 mins) after single 1 mg dose (oral or buccal patch)): 46.9 ng/mL
- concentration at 2 h ([2]; 1 mg, heading: Average Tac conc., rabbit blood, 2.0 (120 mins) after single 1 mg dose (oral or buccal patch)): 31.3 ng/mL
- concentration at 4 h ([2]; 1 mg, heading: Average Tac conc., rabbit blood, 4.0 (240 mins) after single 1 mg dose (oral or buccal patch)): 14.5 ng/mL
- concentration at 6 h ([2]; 1 mg, heading: Average Tac conc., rabbit blood, 6.0 (480 mins) after single 1 mg dose (oral or buccal patch)): 12.3 ng/mL
- concentration at 8 h ([2]; 1 mg, heading: Average Tac conc., rabbit blood, 8.0 (640 mins) after single 1 mg dose (oral or buccal patch)): 11.8 ng/mL
- concentration at 12 h ([2]; 1 mg, heading: Average Tac conc., rabbit blood, 12.0 (720 mins) after single 1 mg dose (oral or buccal patch)): 7.9 ng/mL
- concentration at 24 h ([2]; 1 mg, heading: Average Tac conc., rabbit blood, 24.0 (1440 mins) after single 1 mg dose (oral or buccal patch)): 2.4 ng/mL
- half-life ([2]; rabbit, single 1 mg dose (oral or buccal patch), read-out: Elimination t1/2 (converted)): 2.73 ± 2.9 h
- AUC(0-t) ([2]; rabbit, single 1 mg dose (oral or buccal patch), read-out: Mean AUC0-24): 250 ± 78.2 ng·h/mL
